What was measured:
OCs formed by BMMs = assay: TRAP staining of RANKL-induced OCs formed by BMMs; format: cell-based, mice; details: TRAP staining day 6, n = 5
OVX mice = details: mouse, in vivo
OCs = assay: Tunel staining of OCs apoptosis; format: cell-based, mice; details: BGD 64 μM or ALD 500 μM, 24 h, n = 3
BMMs = assay: CCK-8 cytotoxicity assay, BMMs; format: cell-based, mice; details: CCK-8, 24 h, different concentrations, n = 3
[1] = Zeta potential of peptide assemblies; format: physicochemical; details: self-assembled peptide, 64 μM, Zetasizer, n = 3
Dynamic light scattering = format: physicochemical; details: self-assembled nanoparticles, aqueous solution pH 7.4, 64 μM, Zetasizer
CTSK = target: T1, CTSK (Homo sapiens, UniProt P43235); assay: Zeta potential of the enzymolysis reaction mixture with and without CTSK; format: physicochemical; details: 64 μM peptide
T1 sequence (P43235 115-329): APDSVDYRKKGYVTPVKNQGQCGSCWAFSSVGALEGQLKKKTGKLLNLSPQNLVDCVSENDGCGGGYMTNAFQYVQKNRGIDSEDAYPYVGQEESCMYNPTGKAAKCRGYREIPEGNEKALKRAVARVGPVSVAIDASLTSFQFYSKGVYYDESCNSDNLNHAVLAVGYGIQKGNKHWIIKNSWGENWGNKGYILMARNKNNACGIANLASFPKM

[2] = TEM morphology of peptide assemblies in PBS; details: 64 μM in PBS pH 7.4, 8 h incubation

## CCCN1CCN(c2ccc(C(=O)NC3(C(=O)NCC#N)CCCCC3)cc2)CC1 [Balicatib, reference compound]
OCs formed by BMMs; 20 nM on day 5 of RANKL induction
  OCs formation, inhibitor alone: did not inhibit OCs formation

## NCCCC(O)(P(=O)(O)O)P(=O)(O)O [ALD, Alendronate]
OVX mice
  micro-CT bone parameters (BMD, BV/TV, Tb.Th, Tb.N, Tb.Sp) vs OVX: significantly improved
OCs
  cells undergoing apoptosis (Tunel staining): a large number of OCs and pre-OCs underwent apoptosis

## Bip-FFWKYK-GHPGGPQ-NNNNNN [BGN]
BMMs
  cytotoxicity toward BMMs: biocompatible
[1]
  Zeta potential: −26.4 mV

## Bip-FFWKYK-GHPAAPQ-DDDDDD [BAD]
Dynamic light scattering
  average size of nanoparticles (DLS): 36.6 nm
OCs formed by BMMs; peptide (64 μM) added on day 5 of RANKL induction
  number of TRAP-positive OCs vs RANKL control: no significant effect
CTSK; MES buffer pH 5.5, with CTSK 800 ng/ml
  zeta potential of reaction mixture, presence of CTSK / after cleavage: −9.5 mV
CTSK; MES buffer pH 5.5, without CTSK
  zeta potential of reaction mixture, absence of CTSK / before cleavage: −14.3 mV
BMMs
  cytotoxicity toward BMMs: consistent cytocompatibility
[1]
  Zeta potential: −20.8 mV
[2]
  morphology of assemblies (TEM): dispersed, nearly spherical nanoparticles

## Bip-FFWKYK-GHPGGPQ-KKKKKK [BGK]
BMMs
  cytotoxicity toward BMMs: exhibited cytotoxicity at 32 μM
[1]
  Zeta potential: +11.2 mV

From paper PMC12770474 (Nature Communications, 2025)
